Reference: patent publication US20250230193A1, “CYCLIC COMPOUND HAVING SELECTIVE KRAS INHIBITORY EFFECT ON HRAS AND NRAS” (CHUGAI SEIYAKU KABUSHIKI KAISHA, priority 2022, published 2025)

Key:
[1] = target: GDP-bound NRAS wild-type protein (Homo sapiens, UniProt P01111); assay: Binding to NRAS by surface plasmon resonance (SPR), Single Cycle Kinetics; details: SPR, GDP-bound NRAS wild-type vs GDP-bound KRAS wild-type
[2] = target: GDP-bound HRAS wild-type protein (Homo sapiens, UniProt P01112); assay: Binding to HRAS by surface plasmon resonance (SPR), Single Cycle Kinetics; details: SPR, GDP-bound HRAS wild-type vs GDP-bound KRAS wild-type
GDP-bound HRAS wild-type protein, sequence (P01112 whole entry): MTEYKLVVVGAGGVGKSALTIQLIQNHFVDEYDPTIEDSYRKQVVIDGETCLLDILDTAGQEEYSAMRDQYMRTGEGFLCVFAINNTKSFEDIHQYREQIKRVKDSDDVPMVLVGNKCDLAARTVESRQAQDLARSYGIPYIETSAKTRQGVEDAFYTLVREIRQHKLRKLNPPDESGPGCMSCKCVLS

GDP-bound NRAS wild-type protein, sequence (P01111 whole entry): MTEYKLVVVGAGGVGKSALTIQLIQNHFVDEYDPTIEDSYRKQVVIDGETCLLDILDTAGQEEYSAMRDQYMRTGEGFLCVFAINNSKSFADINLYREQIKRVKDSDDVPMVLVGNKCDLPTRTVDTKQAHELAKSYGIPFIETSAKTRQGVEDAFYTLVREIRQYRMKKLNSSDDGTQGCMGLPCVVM

Row | Compound | NRAS/KRAS (ratio of KD value with respect to NRAS to KD value with respect to KRAS) [1] | HRAS/KRAS (ratio of KD value with respect to HRAS to KD value with respect to KRAS) [2]
1 | CCO[C@@H]1C[C@H]2C(=O)NC3(CC(C)(C)C3)C(=O)N(C)[C@@H](C3CCCC3)C(=O)N(C)[C@H](C(=O)N(C)C)CC(=O)N(C)[C@@H](COC)C(=O)N[C@@H]([C@@H](C)CC)C(=O)N(C)CC(=O)N(C)[C@H]3C/C=C\CCN(C3=O)[C@@H](Cc3ccc(C)cc3)C(=O)N(C)CC(=O)N[C@@H](CCc3cc(F)c(C(F)(F)F)c(F)c3)C(=O)N2C1 [PP2391] | A (a compound having 10 or more and less than 20 is denoted as A) | A (a compound having 10 or more and less than 20 is denoted as A)
2 | CCO[C@@H]1C[C@H]2C(=O)NC3(CC(C)(C)C3)C(=O)N(C)[C@@H](C3CCCC3)C(=O)N(C)[C@H](C(=O)N(C)CC)CC(=O)N(C)[C@@H](COC)C(=O)N[C@@H]([C@@H](C)CC)C(=O)N(C)CC(=O)N(C)[C@H]3C/C=C\CCN(C3=O)[C@@H](Cc3ccc(C)cc3)C(=O)N(C)CC(=O)N[C@@H](CCc3ccc(C(F)(F)F)c(OC)c3)C(=O)N2C1 [PP2392] | A (a compound having 10 or more and less than 20 is denoted as A) | A (a compound having 10 or more and less than 20 is denoted as A)
3 | CCOC[C@H]1C(=O)N[C@@H]([C@@H](C)CC)C(=O)N(C)CC(=O)N(C)[C@H]2C/C=C\CCN(C2=O)[C@@H](Cc2ccc(C)cc2)C(=O)N(C)CC(=O)N[C@@H](CCc2ccc(C(F)(F)F)c(OC)c2)C(=O)N2C[C@H](C)C[C@H]2C(=O)NC2(CC(C)(C)C2)C(=O)N(C)[C@@H](C2CCCC2)C(=O)N(C)[C@H](C(=O)N(C)C)CC(=O)N1C [PP2393] | A (a compound having 10 or more and less than 20 is denoted as A) | A (a compound having 10 or more and less than 20 is denoted as A)
4 | CCOC[C@H]1C(=O)N[C@@H]([C@@H](C)CC)C(=O)N(C)CC(=O)N(C)[C@H]2C/C=C\CCN(C2=O)[C@@H](Cc2ccc(C)cc2)C(=O)N(C)CC(=O)N[C@@H](CCc2ccc(C(F)(F)F)c(Cl)c2)C(=O)N2C[C@@H](C)C[C@H]2C(=O)NC2(CC(C)(C)C2)C(=O)N(C)[C@@H](C2CCCC2)C(=O)N(C)[C@H](C(=O)N(C)C)CC(=O)N1C [PP2394] | A (a compound having 10 or more and less than 20 is denoted as A) | B (a compound having 3 or more and less than 10 is denoted as B)
5 | CCOC[C@H]1C(=O)N[C@@H]([C@@H](C)CC)C(=O)N(C)CC(=O)N(C)[C@H]2C/C=C\CCN(C2=O)[C@@H](Cc2ccc(C)cc2)C(=O)N(C)CC(=O)N[C@@H](CCc2ccc(C(F)(F)F)c(Cl)c2)C(=O)N2C[C@H](OCC)C[C@H]2C(=O)NC2(CC(C)(C)C2)C(=O)N(C)[C@@H](C2CCCC2)C(=O)N(C)[C@H](C(=O)N(C)C)CC(=O)N1C [PP2395] | A (a compound having 10 or more and less than 20 is denoted as A) | B (a compound having 3 or more and less than 10 is denoted as B)
6 | CCO[C@@H]1C[C@H]2C(=O)NC3(CC(C)(C)C3)C(=O)N(C)[C@@H](C3CCCC3)C(=O)N(C)[C@H](C(=O)N(C)CC)CC(=O)N(C)[C@@H](COC)C(=O)N[C@@H]([C@@H](C)CC)C(=O)N(C)CC(=O)N(C)[C@H]3C/C=C\CCN(C3=O)[C@@H](Cc3ccc(C)cc3)C(=O)N(C)CC(=O)N[C@@H](CCc3cc(F)c(C(F)(F)F)c(F)c3)C(=O)N2C1 [PP2396] | A (a compound having 10 or more and less than 20 is denoted as A) | A (a compound having 10 or more and less than 20 is denoted as A)
7 | CCOC[C@H]1C(=O)N[C@@H]([C@@H](C)CC)C(=O)N(C)CC(=O)N(C)[C@H]2C/C=C\CCN(C2=O)[C@@H](Cc2ccc(C)cc2)C(=O)N(C)CC(=O)N[C@@H](CCc2cc(F)c(C(F)(F)F)c(F)c2)C(=O)N2C[C@H](OCC)C[C@H]2C(=O)NC2(CC(C)(C)C2)C(=O)N(C)[C@@H](C2CCCC2)C(=O)N(C)[C@H](C(=O)N(C)C)CC(=O)N1C [PP2397] | A (a compound having 10 or more and less than 20 is denoted as A) | A (a compound having 10 or more and less than 20 is denoted as A)
8 | CCO[C@@H]1C[C@H]2C(=O)NC3(CC(C)(C)C3)C(=O)N(C)[C@@H](C3CCCC3)C(=O)N(C)[C@H](C(=O)N(CC)CC)CC(=O)N(C)[C@@H](COC)C(=O)N[C@@H]([C@@H](C)CC)C(=O)N(C)CC(=O)N(C)[C@H]3C/C=C\CCN(C3=O)[C@@H](Cc3ccc(C)cc3)C(=O)N(C)CC(=O)N[C@@H](CCc3ccc(C(F)(F)F)c(OC)c3)C(=O)N2C1 [PP2398] | A (a compound having 10 or more and less than 20 is denoted as A) | A (a compound having 10 or more and less than 20 is denoted as A)
9 | CC[C@H](C)[C@@H]1NC(=O)[C@H](COC)N(C)C(=O)C[C@@H](C(=O)N(CC)CC)N(C)C(=O)[C@H](C2CCCC2)N(C)C(=O)C2(CC(C)(C)C2)NC(=O)[C@@H]2C[C@H](C)CN2C(=O)[C@H](CCc2ccc(C(F)(F)F)c(Cl)c2)NC(=O)CN(C)C(=O)[C@H](Cc2ccc(C)cc2)N2CC/C=C\C[C@@H](C2=O)N(C)C(=O)CN(C)C1=O [PP2399] | AA (a compound having 20 or more is denoted as AA) | A (a compound having 10 or more and less than 20 is denoted as A)
10 | CCO[C@@H]1C[C@H]2C(=O)NC3(CC(C)(C)C3)C(=O)N(C)[C@@H](C3CCCC3)C(=O)N(C)[C@H](C(=O)N(CC)CC)CC(=O)N(C)[C@@H](COC)C(=O)N[C@@H]([C@@H](C)CC)C(=O)N(C)CC(=O)N(C)[C@H]3C/C=C\CCN(C3=O)[C@@H](Cc3ccc(C)cc3)C(=O)N(C)CC(=O)N[C@@H](CCc3ccc(C(F)(F)F)c(Cl)c3)C(=O)N2C1 [PP2400] | A (a compound having 10 or more and less than 20 is denoted as A) | A (a compound having 10 or more and less than 20 is denoted as A)
11 | CCOC[C@H]1C(=O)N[C@@H]([C@@H](C)CC)C(=O)N(C)CC(=O)N(C)[C@H]2C/C=C\CCN(C2=O)[C@@H](Cc2ccc(C)cc2)C(=O)N(C)CC(=O)N[C@@H](CCc2ccc(C(F)(F)F)c(Cl)c2)C(=O)N2C[C@H](OCC)C[C@H]2C(=O)NC2(CC(C)(C)C2)C(=O)N(C)[C@@H](C2CCCC2)C(=O)N(C)[C@H](C(=O)N(C)CC)CC(=O)N1C [PP2401] | A (a compound having 10 or more and less than 20 is denoted as A) | A (a compound having 10 or more and less than 20 is denoted as A)
12 | CCCOC[C@H]1C(=O)N[C@@H]([C@@H](C)CC)C(=O)N(C)CC(=O)N(C)[C@H]2C/C=C\CCN(C2=O)[C@@H](Cc2ccc(C)cc2)C(=O)N(C)CC(=O)N[C@@H](CCc2ccc(C(F)(F)F)c(Cl)c2)C(=O)N2C[C@H](OCC)C[C@H]2C(=O)NC2(CC(C)(C)C2)C(=O)N(C)[C@@H](C2CCCC2)C(=O)N(C)[C@H](C(=O)N(C)C)CC(=O)N1C [PP2402] | A (a compound having 10 or more and less than 20 is denoted as A) | A (a compound having 10 or more and less than 20 is denoted as A)
13 | CCO[C@@H]1C[C@H]2C(=O)NC3(CC(C)(C)C3)C(=O)N(C)[C@@H](C3CCCC3)C(=O)N(C)[C@H](C(=O)N(CC)CC)CC(=O)N(C)[C@@H](COC)C(=O)N[C@@H]([C@@H](C)CC)C(=O)N(C)CC(=O)N(C)[C@H]3C/C=C\CCN(C3=O)[C@@H](Cc3ccc(C)cc3)C(=O)N(C)CC(=O)N[C@@H](CCc3cc(F)c(C(F)(F)F)c(F)c3)C(=O)N2C1 [PP2403] | A (a compound having 10 or more and less than 20 is denoted as A) | A (a compound having 10 or more and less than 20 is denoted as A)
14 | CCOC[C@H]1C(=O)N[C@@H]([C@@H](C)CC)C(=O)N(C)CC(=O)N(C)[C@H]2C/C=C\CCN(C2=O)[C@@H](Cc2ccc(C)cc2)C(=O)N(C)CC(=O)N[C@@H](CCc2cc(F)c(C(F)(F)F)c(F)c2)C(=O)N2C[C@H](OCC)C[C@H]2C(=O)NC2(CC(C)(C)C2)C(=O)N(C)[C@@H](C2CCCC2)C(=O)N(C)[C@H](C(=O)N(C)CC)CC(=O)N1C [PP2404] | A (a compound having 10 or more and less than 20 is denoted as A) | A (a compound having 10 or more and less than 20 is denoted as A)
15 | CCOC[C@H]1C(=O)N[C@@H]([C@@H](C)CC)C(=O)N(C)CC(=O)N(C)[C@H]2C/C=C\CCN(C2=O)[C@@H](Cc2ccc(C)cc2)C(=O)N(C)CC(=O)N[C@@H](CCc2ccc(C(F)(F)F)c(OC)c2)C(=O)N2C[C@@H](C)C[C@H]2C(=O)NC2(CC(C)(C)C2)C(=O)N(C)[C@@H](C2CCCC2)C(=O)N(C)[C@H](C(=O)N(CC)CC)CC(=O)N1C [PP2405] | A (a compound having 10 or more and less than 20 is denoted as A) | A (a compound having 10 or more and less than 20 is denoted as A)
16 | CCOC[C@H]1C(=O)N[C@@H]([C@@H](C)CC)C(=O)N(C)CC(=O)N(C)[C@H]2C/C=C\CCN(C2=O)[C@@H](Cc2ccc(C)cc2)C(=O)N(C)CC(=O)N[C@@H](CCc2ccc(C(F)(F)F)c(OC)c2)C(=O)N2C[C@H](OCC)C[C@H]2C(=O)NC2(CC(C)(C)C2)C(=O)N(C)[C@@H](C2CCCC2)C(=O)N(C)[C@H](C(=O)N(CC)CC)CC(=O)N1C [PP2406] | A (a compound having 10 or more and less than 20 is denoted as A) | A (a compound having 10 or more and less than 20 is denoted as A)
